According to patent US20250064808A1, “METHODS FOR THE TREATMENT OF NLRP3 RELATED DISORDERS” (priority 2022, published 2025):

Legend:
[1] = test system: BMDM; assay: mtROS (MitoSOX) in BMDM; details: LPS-primed BMDM; for mtROS generated by the compound itself: DMNQ 20 μM 16 hrs or MitoParaquat 5 μM 1 hr, compared with ATP
Experimental: (§2) Bone marrow cells were cultured in high glucose DMEM supplemented with 10% FBS, 20% L929-cell conditioned medium, and 100 U/mL penicillin-streptomycin for 7-10 days at 37° C. with 5% CO2 (Hornung et al., 2008).
(§3) Mitochondrial membrane potential was measured using TMRM according to manufacturer's instructions. Briefly, BMDM were primed or not with LPS for 4 h, and further stimulated with ATP or nigericin for 60 minutes. Cells were incubated with 200 nM TMRM for 30 minutes at 37° C. After washing twice, fluorescence intensity was determined per manufacturer's instructions using a FilterMax F5 multimode plate reader (Molecular Devices). Mitochondrial reactive oxygen species (mtROS) were measured using MitoSOX (Invitrogen) as described (Xian et al., 2021). BMDM treated as indicated were loaded with 4 μM MitoSOX for 20 minutes. After washing with PBS twice, cells were resuspended in PBS and counted. Equal numbers of cells from different treatment groups were then plated onto 96-well plates for fluorescence reading. To quantify [Ca^2+]m by 5 μM Rhod-2 or intracellular Ca^2+ intensity by 1 μM Fluo-4, BMDM treated as indicated were loaded with the respective dyes according to manufacturer's instructions for 30 minutes. After washing twice, fluorescence intensity was determined using a FilterMax F5 multimode plate reader (Molecular Devices). To analyze mPTP opening by calcein-quenching assay, BMDM treated as indicated were loaded with calcein at 2 μM and CoCl2 at 160 μM for 30 minutes at 37° C. according to manufacturer's instructions. After washing twice, fluorescence intensity was determined per with a FilterMax F5 multimode plate reader (Molecular Devices).

[2] = test system: BMDM; assay: 8-OH-dG content of mtDNA from mitochondria of BMDM; details: for mtDNA oxidation caused by mtROS generator: LPS-primed BMDM, DMNQ 20 μM 16 hrs or MitoParaquat 5 μM 1 hr
Experimental: as §2
(§4) BMDM were stimulated as indicated. […] Briefly, BMDM were washed with PBS and harvested, 10% of which were saved for DNA extraction of whole cells. The remaining BMDM resuspended with pre-chilled mitochondrial extraction buffer 1 (220 mM mannitol, 70 mM sucrose, 20 mM HEPES-KOH, pH 7.5, 1 mM EDTA and 2 mg/mL bovine serum albumin) supplemented with a protease inhibitor cocktail and a phosphatase inhibitor cocktail were passed through a 25-G syringe (BD Biosciences) 20 times on ice. The homogenized cells were centrifuged at 1000×g for 15 minutes at 4° C. The supernatant was further centrifuged at 10,000×g for 10 minutes at 4° C. to pellet the mitochondria from supernatant cytosolic fraction. qPCR was performed after DNA purification with AllPrep DNA/RNA Mini Kit according to manufacturer's instructions, from both whole cell extracts and cytosolic fractions using mtDNA primers (D-loop, Cox1, non-NUMT), or after DNA purification from whole cell extracts using nuclear DNA primers (Tert, 18S, B2m). The Ct values obtained for mtDNA abundance in whole cell extracts served as normalization controls for the mtDNA values obtained from the cytosolic fractions. For the measurement of Ox-mtDNA, purified mtDNA was extracted from the cytosolic or mitochondrial fractions as indicated. The 8-OH-dG content was then quantified using 8-hydroxy 2-deoxyguanosine ELISA Kit, per manufacturer's instructions.

[3] = test system: NLRP3 inflammasome; assay: NLRP3 inflammasome activation (Casp1 p20 and mature IL-1β, IB and ELISA) in BMDM; type: cell-based, mouse; details: for activation of NLRP3 inflammasome by mtROS generator: BMDM −/+ LPS priming, DMNQ or MitoParaquat; for NLRP3 inflammasome activation (Casp1 activation and mature IL-1β secretion): LPS-primed BMDM, compound pretreatment 16 h, challenged with NLRP3 activators
From the text: (§1) Paired antibodies (capture and detection) and standard recombinant mouse IL-1β and TNF were used to determine mouse cytokine concentrations according to manufacturer's instructions.

[4] = test system: VDAC; assay: VDAC cross-linking assay (VDAC oligomerization) in BMDM; type: cell-based, mouse; details: LPS-primed BMDM; for induction of VDAC oligomerization by mtROS generator: DMNQ 20 μM 16 hrs or MitoParaquat 5 μM 1 hr; for VDAC oligomerization induced by NLRP3 activator: compound pretreatment 16 h (VBIT-4 10 μM, CsA 1 μM, RuR 10 μM), ATP 4 mM or nigericin 10 μM 1 h
Experimental: BMDM treated as indicated were washed and collected in PBS, incubated for 40 min at 30° C. with the cross-linking reagent EGS (200 μM). Samples were subjected to SDS-PAGE and IB analyzed with anti-VDAC antibody.

[5] = test system: BMDM; assay: cytosolic Ox-mtDNA (8-OH-dG ELISA of cytosolic mtDNA) in BMDM; type: cell-based, mouse; details: for induction of Ox-mtDNA cytosolic release by mtROS generator: DMNQ 20 μM 16 hrs or MitoParaquat 5 μM 1 hr
Experimental: as §2, §4

[6] = test system: mPTP; assay: calcein-quenching assay for mPTP opening in BMDM; type: cell-based; details: for induction of mPTP opening by mtROS generator: LPS-primed BMDM, DMNQ 20 μM 16 hrs or MitoParaquat 5 μM 1 hr; for mPTP opening (calcein fluorescence): BMDM pretreated 16 h (CsA 1 μM, VBIT-4 10 μM, RuR 10 μM), LPS-primed, ATP or nigericin 1 h
Experimental: as §2, §3

[7] = test system: BMDM; assay: cytosolic mtDNA (qPCR after cellular fractionation) in BMDM; type: cell-based, mouse; details: for induction of mtDNA cytosolic release by mtROS generator: DMNQ 20 μM 16 hrs or MitoParaquat 5 μM 1 hr
Experimental: as §2, §4

[8] = test system: BMDM; assay: extracellular (cell-free) mtDNA released by donor BMDM; type: cell-based, mouse; details: for amount of DNA released by LPS-primed donor BMDM challenged with the NLRP3 activator: 1500,000 donor cells per group, LPS-primed only approximately 0.1 μg
Experimental: Extracellular DNA of donor macrophages (1500,000 cells per group) was isolated using QIAamp Circulating Nucleic Acid Kit according to manufacturer's instructions and then eluted in 300 μL distilled H2O and quantified using spectrophotometric analysis at 260/280 nm with Nanodrop. […] Applicant used 5% of the prepared DNA for qPCR measurement of extracellular mtDNA and the remaining 95% were added to the recipient BMDM for analyzing the paracrine immunostimulatory effects.

[9] = test system: BMDM; assay: stimulation of naive recipient BMDM by cell-free mtDNA (cytokine and ISG mRNA, qPCR); type: cell-based, mouse
Experimental: RNA was extracted using AllPrep DNA/RNA Mini kit, and cDNA was synthesized using SuperScript™ VILO™ cDNA Synthesis Kit. mRNA expression was determined by QPCR in a CFX96 thermal cycler (Biorad) as described (Xian et al., 2021). Data are presented in arbitrary units and calculated by the 2^(−ΔΔCT) method. Primer sequences were obtained from the NIH qPrimerDepot (http://mouseprimerdepot.nci.nih.gov) and provided by Integrated DNA technologies.
Extracellular DNA of donor macrophages (1500,000 cells per group) was isolated using QIAamp Circulating Nucleic Acid Kit according to manufacturer's instructions and then eluted in 300 μL distilled H2O and quantified using spectrophotometric analysis at 260/280 nm with Nanodrop. DNA amounts purified among the different treatment groups vary. The DNA amount secreted from LPS-primed donor BMDM is low, approximately at 0.1 μg. The amount of DNA released by LPS-primed donor BMDM challenged with ATP is about 1.3 μg, while the amount of DNA released by LPS-primed donor BMDM challenged with nigericin is around 2 μg. The amount of DNA secreted by LPS-primed donor BMDM challenged with MSU or alum is about 0.7 μg. Applicant used 5% of the prepared DNA for qPCR measurement of extracellular mtDNA and the remaining 95% were added to the recipient BMDM for analyzing the paracrine immunostimulatory effects.

[10] = test system: STING; assay: STING Ser365 phosphorylation (puncta by immunofluorescence, immunoblot) in BMDM; details: CsA 1 μM, VBIT-4 10 μM or FEN1-IN-4 10 μM 16 hrs
Experimental: as §2
Whole cell lysates were prepared in RIPA buffer (25 mM Tris-HCl pH 7.6, 150 mM NaCl, 1% NP-40, 1% sodium deoxycholate, 0.1% SDS) containing a protease inhibitor cocktail and a phosphatase inhibitor cocktail. Protein concentrations were determined using BCA Protein Assay Kit. Equal amounts of protein were separated by SDS-PAGE and transferred onto PVDF membranes, blocked in 5% BSA in 1×TBST for 1 h and incubated with primary antibodies overnight. Secondary antibodies were added for 1 h and detection was performed using Clarity Western ECL Substrate.
(§5) BMDM were fixed in 4% paraformaldehyde (PFA), permeabilized in 0.2% Triton X-100,and blocked in 1×PBS supplemented with 3% BSA. […] Nuclei were counterstained with DAPI.

[11] = test system: ASC; assay: ASC speck formation (immunofluorescence) in BMDM
[12] = test system: BMDM; assay: mitochondrial membrane potential (TMRM) in BMDM; type: cell-based, mouse; details: BMDM incubated with CsA or VBIT-4
Experimental: as §2
(§6) Mitochondrial membrane potential was measured using TMRM according to manufacturer's instructions. Briefly, BMDM were primed or not with LPS for 4 h, and further stimulated with ATP or nigericin for 60 minutes. Cells were incubated with 200 nM TMRM for 30 minutes at 37° C. After washing twice, fluorescence intensity was determined per manufacturer's instructions using a FilterMax F5 multimode plate reader (Molecular Devices). Mitochondrial reactive oxygen species (mtROS) were measured using MitoSOX (Invitrogen) as described (Xian et al., 2021). […] After washing with PBS twice, cells were resuspended in PBS and counted. Equal numbers of cells from different treatment groups were then plated onto 96-well plates for fluorescence reading. To quantify [Ca^2+]m by 5 μM Rhod-2 or intracellular Ca^2+ intensity by 1 μM Fluo-4, BMDM treated as indicated were loaded with the respective dyes according to manufacturer's instructions for 30 minutes. After washing twice, fluorescence intensity was determined using a FilterMax F5 multimode plate reader (Molecular Devices). […] After washing twice, fluorescence intensity was determined per with a FilterMax F5 multimode plate reader (Molecular Devices).

[13] = test system: BMDM; assay: Ox-mtDNA and mtDNA in the intermembrane space (proteinase K digested mitochondria); details: supernatant of proteinase K digested mitochondria from treated BMDM
Experimental: To dissect the roles of VDAC oligomerization and mPTP in mtDNA escape, Applicant investigated whether Ox-mtDNA and mtDNA were trapped in the mitochondrial intermembrane space (IMS) of VBIT-4 treated BMDM. […] Using this method (FIG. 2F), Applicant measured relative Ox-mtDNA and mtDNA amounts in the IMS.
BMDM were stimulated as indicated. Cellular fractionation was carried out as previously described (Xian and Liou, 2019; Xian et al., 2019). Briefly, BMDM were washed with PBS and harvested, 10% of which were saved for DNA extraction of whole cells. The remaining BMDM resuspended with pre-chilled mitochondrial extraction buffer 1 (220 mM mannitol, 70 mM sucrose, 20 mM HEPES-KOH, pH 7.5, 1 mM EDTA and 2 mg/mL bovine serum albumin) supplemented with a protease inhibitor cocktail and a phosphatase inhibitor cocktail were passed through a 25-G syringe (BD Biosciences) 20 times on ice. The homogenized cells were centrifuged at 1000×g for 15 minutes at 4° C. […] The 8-OH-dG content was then quantified using 8-hydroxy 2-deoxyguanosine ELISA Kit, per manufacturer's instructions.

[14] = test system: NLRP3, pro-IL-1β, pro-casp1 and ASC; assay: immunoblot of NLRP3 inflammasome component expression in BMDM lysates; type: cell-based, mouse; details: BMDM lysates before and after LPS priming, compound pretreatment 16 h
[15] = test system: TNF; assay: TNF secretion by BMDM (ELISA); type: cell-based, mouse; details: compound pretreatment 16 h, LPS priming, NLRP3 activators
From the text: as §1

[16] = test system: BMDM; assay: cytosolic Ca2+ (Fluo-4) in BMDM; type: cell-based, mouse; details: XeC 5 μM 16 h, ATP challenge
Experimental: as §2, §6

[17] = test system: BMDM; assay: mitochondrial Ca2+ ([Ca^2+]m, Rhod-2) in BMDM; type: cell-based, mouse; details: LPS-primed BMDM, XeC 5 μM or RuR 10 μM 16 h
Experimental: After washing, BMDM were kept in the incubator for additional 30 minutes before confocal imaging (Nikon CSU-X1 Spinning Disk). Dynamic [Ca^2+]m images were captured at 10 seconds intervals for 4 minutes, with the addition of NLRP3 agonist at 40 seconds.

[18] = test system: BMDM; assay: total mtDNA (LPS-stimulated mtDNA synthesis, qPCR) in BMDM; type: cell-based, mouse; details: compound 10 μM 16 h, before or after LPS priming
From the text: Nuclear DNA encoding telomerase reverse transcriptase (Tert), 18S ribosomal RNA and β2 microglobulin (B2m) was used for normalization.

[19] = test system: BMDM; assay: cytochrome C release (immunofluorescence) in BMDM; type: cell-based, mouse; details: BMDM treated with etoposide (positive control)
Experimental: as §2, §5

[20] = LPS-primed shCtrl or shOgg1 BMDM, CsA 1 μM or VBIT-4 10 μM 16 h, ATP 4 mM 1 h
[21] = LPS-primed BMDM, compound 10 μM 16 h, ATP 4 mM 1 h

C[n+]1ccc(-c2cc[n+](CCCCCCCCCC[P+](c3ccccc3)(c3ccccc3)c3ccccc3)cc2)cc1.[I-].[I-].[I-] [mitoParaquat]
mtROS generated by the compound itself [1]: as much mtROS as ATP
mtDNA oxidation caused by mtROS generator [2]: augmented
activation of NLRP3 inflammasome by mtROS generator [3]: neither mtROS generator activated
induction of VDAC oligomerization by mtROS generator [4]: neither compound induced
induction of Ox-mtDNA cytosolic release by mtROS generator ([5]; LPS-primed BMDM): neither compound induced
induction of mPTP opening by mtROS generator [6]: neither compound induced
induction of mtDNA cytosolic release by mtROS generator ([7]; LPS-primed BMDM): neither compound induced

O=C(CC(CO)N1CCN(c2ccc(OC(F)(F)F)cc2)CC1)Nc1ccc(Cl)cc1 (stereo not drawn) [VBIT-4]
mtROS production ([1]; compound pretreatment 16 h, ATP or nigericin): modest decline
reduction of mtDNA oxidation (8-OH-dG in mitochondrial mtDNA) ([2]; LPS-primed BMDM pretreated with CsA or VBIT-4 16 h, ATP stimulation): 45±5.0%
cell-free mtDNA release ([8]; LPS-primed donor BMDM pretreated with compound, challenged with ATP or nigericin): inhibited
NLRP3 inflammasome activation (Casp1 activation and mature IL-1β secretion) [3]: inhibited
immunostimulatory activity of DNA secreted by treated donor BMDM ([9]; recipient BMDM incubated 24 h with DNA from compound-pretreated donor BMDM, cytokine and ISG mRNAs): inhibited
formation of Ser^365 phosphorylated STING puncta ([10]; LPS-primed BMDM, ATP or nigericin): diminished
ATP-induced STING Ser^365 phosphorylation (immunoblot) in Nlrp3−/− BMDM ([10]; LPS-primed Nlrp3−/− BMDM, ATP): completely blocked
ASC speck formation ([11]; BMDM, VBIT-4 10 μM 16 h, LPS-primed, ATP or nigericin 1 h): inhibited
mitochondrial depolarization upon NLRP3 activator challenge [12]: abrogated
VDAC oligomerization induced by NLRP3 activator [4]: blocked
reduction of cytosolic pool of Ox-mtDNA [5, 20]: 81±4%
amount of Ox-mtDNA within the IMS [13]: elevated
amount of mtDNA (different regions of the genome) within the IMS [13]: elevated
mPTP opening (calcein fluorescence) [6]: little effect on calcein fluorescence
NLRP3, pro-IL-1β, pro-casp1 and ASC expression [14]: without affecting
reduction of cytosolic pool of mtDNA [7, 20]: 50-60%
TNF secretion [15]: without affecting

O=c1[nH]c(=O)c2[nH]c([O-])nc2[nH]1.[Na+] [MSU, monosodium urate]
amount of DNA released by LPS-primed donor BMDM challenged with the NLRP3 activator [8]: about 0.7 μg

C1CCC[C@H]2CCCN3CC[C@@H](CCCCCC[C@@H]4CCCN5CC[C@@H](CC1)O[C@@H]45)O[C@@H]23 [XeC, xestospongin C]
cytosolic Ca^2+ (Fluo-4 fluorescence) [16]: decreased
ATP- or nigericin-induced [Ca^2+]m pulse (Rhod-2 fluorescence) [17]: had no effect

O=C1NC(=NS(=O)(=O)c2cccc3ccccc23)S/C1=C\c1ccc(Br)cc1 [Pitstop2]
cytokine mRNA induction by extracellular mtDNA ([9]; recipient BMDM with Pitstop 2 (2 uM), 24 hrs with extracellular DNA): diminish

COC1=C(OC)C(=O)c2ccccc2C1=O [DMNQ]
mtROS generated by the compound itself [1]: as much mtROS as ATP
mtDNA oxidation caused by mtROS generator [2]: augmented
activation of NLRP3 inflammasome by mtROS generator [3]: neither mtROS generator activated
induction of VDAC oligomerization by mtROS generator [4]: neither compound induced
induction of Ox-mtDNA cytosolic release by mtROS generator ([5]; LPS-primed BMDM): neither compound induced
induction of mPTP opening by mtROS generator [6]: neither compound induced
induction of mtDNA cytosolic release by mtROS generator ([7]; LPS-primed BMDM): neither compound induced

N.N.N.N.N.N.N.N.N.N.N.N.N.N.[Cl-].[Cl-].[Cl-].[Cl-].[Cl-].[Cl-].[O-2].[O-2].[Ru+3].[Ru+3].[Ru+4] [RuR, ruthenium red]
LPS-stimulated mtDNA synthesis (total mtDNA) [18]: did not inhibit
NLRP3 inflammasome activation (Casp1 activation and mature IL-1β secretion) [3]: suppressed
VDAC oligomerization induced by NLRP3 activator [4]: blocked
cytosolic Ox-mtDNA (release) [5, 21]: reducing
mPTP opening (calcein fluorescence) [6]: blocked
NLRP3, pro-IL-1β, pro-casp1 and ASC expression [14]: no effect
cytosolic mtDNA release [7, 21]: reducing
ATP- or nigericin-induced [Ca^2+]m pulse (Rhod-2 fluorescence) [17]: disrupted
TNF secretion [15]: no effect

COc1cc([C@@H]2c3cc4c(cc3[C@@H](O[C@@H]3O[C@@H]5CO[C@@H](C)O[C@H]5[C@H](O)[C@H]3O)[C@H]3COC(=O)[C@H]23)OCO4)cc(OC)c1O [etoposide]
ASC speck formation triggered by apoptosis inducer ([11]; BMDM treated with etoposide): did not trigger
cytochrome C release [19]: induced cytochrome C release

CO[C@@H]1C[C@@H](C[C@H]2CC[C@H](C)[C@H]([C@@H](C)C(=O)O)O2)O[C@]2(O[C@](C)([C@H]3CC[C@@](C)([C@@H]4O[C@@H]([C@H]5O[C@@](O)(CO)[C@H](C)C[C@@H]5C)C[C@@H]4C)O3)C[C@H]2C)[C@@H]1C [nigericin]
amount of DNA released by LPS-primed donor BMDM challenged with the NLRP3 activator [8]: around 2 μg

Nc1ncnc2c1ncn2[C@@H]1O[C@H](COP(=O)(O)OP(=O)(O)OP(=O)(O)O)[C@@H](O)[C@H]1O [ATP, adenosine triphosphate]
amount of DNA released by LPS-primed donor BMDM challenged with the NLRP3 activator [8]: about 1.3 μg
